Data from US20210236467A1, “DANTROLENE FORMULATIONS AND METHODS OF THEIR USE” (EAGLE PHARMACEUTICALS, INC., priority 2018, published 2021).
Converted amounts (≈) assume the structure as drawn.

How the values were obtained:
[1] = Solubility / concentration determination by UPLC of supernatant; assay type: physicochemical; conditions: organic solvent or mixture, thermodynamic from solid; saturated supernatant, room temperature, propylene glycol
Description: (§1) 11.2 mgs of dantrolene acid was added to 224 uL of PEG400. […] The tube was centrifuged for 5 min at 15,000 rpm at room temperature to separate the sample into supernatant (dantrolene acid in solution) and pellet (insoluble material). The supernatant was transferred into a clean tube and diluted 100-, 200- and 400-fold in 25% acetonitrile for analysis by UPLC as described below.
as §1, with “16.3” for “11.2”, “326” for “224”, “propylene glycol.” for “PEG400.”, “50-, 100-” for “100-, 200-”, “200-fold” for “400-fold”, “below. The solubility of dantrolene acid in propylene glycol was calculated as ˜0.8 mg/mL.” for “below.”
13.0 mgs of dantrolene acid was dissolved in 1.3 mL of PEG400, targeting 10 mg/mL dantrolene acid. […]
Analysis was performed using an Agilent UPLC System equipped with a diode array detector and an Agilent C18 Zorbax column. Samples were analyzed using a gradient method with mobile phase A containing 0.1% trifluoroacetic acid in water and mobile phase B containing 0.1% trifluoroacetic acid in acetonitrile. […] A 10 uL sample was injected and the analytes were detected by UV at 385 nm. […] Peak areas were determined by manual integration. […]

[2] = Effective pH determination (10-fold dilution of non-aqueous sample in water); assay type: physicochemical; conditions: for effective pH of 10 mg/mL samples in PEG400: Example 3, target 10 mg/mL in PEG400, 10-fold dilution in water, ratios acid:sodium by volume; for pH of the supernatant (effective pH): 10-fold dilution in water
Description: The pH of the supernatant was measured by making a 10-fold dilution of the supernatant in water.
The effective pH of the supernatant was measured by making a 10-fold dilution of the supernatant in water.
The effective pH of the dantrolene acid supernatant and dantrolene sodium sample was measured by making 10-fold dilutions in water, per the methods described elsewhere herein.
The effective pH of each sample was measured by making 10F dilutions in water. The pH values were recorded as follows—
Effective pH measurements were conducted at ambient room temperature, using a Thermo Scientific Orion Star A111 pH benchtop meter. The instrument was calibrated within one day of the effective pH measurement using phosphate buffers at pH 4, 7, and 10 (Hydrion Tri-Chek Buffer Capsule set).
Samples were prepared by diluting the non-aqueous/anhydrous sample 10 fold with water. The diluted sample was vortexed for about 10 to 15 seconds. Effective pH was measured using the pre-calibrated pH benchtop meter, directly after vortexing.
After each effective pH measurement, the pH bulb was rinsed with an appropriate rinse solution to remove the entire test sample from the bulb.

[3] = Dissolution and solution stability by visual inspection; assay type: physicochemical; conditions: for dissolution on visual inspection: target 10 mg/mL in PEG400, after vortexing
Description: 13.0 mgs of dantrolene acid was dissolved in 1.3 mL of PEG400, targeting 10 mg/mL dantrolene acid. 12.7 mgs of dantrolene sodium was dissolved in 1.27 mL of PEG400, targeting 10 mg/mL of dantrolene sodium. […] Both tubes were centrifuged for 5 min at 3,900 rpm at room temperature to separate the sample into supernatant (dantrolene acid or dantrolene sodium in solution) and pellet (insoluble material). […] The supernatant of the dantrolene acid sample was transferred into a clean tube. The dantrolene acid supernatant and the dantrolene sodium solution were diluted 100- and 200-fold in 25% acetonitrile for analysis on the UPLC as described below.
(§2) Dantrolene sodium (6.4 mg) was weighed into a glass vial and propylene glycol (0.128 mL) was added, using a positive displacement pipette to achieve a target concentration of 50 mg/mL of dantrolene sodium. The contents of the vials were mixed with a positive displacement pipette. Visual inspection confirmed that the solutions were clear. The sample was a stable solution for at about 2 days at room temperature, after which time, precipitate formed. The precipitate was 99.9% dantrolene, as determined using HPLC.
as §2, with “(6.2” for “(6.4”, “PEG400 (0.124” for “propylene glycol (0.128”, “that” for “that the”

[4] = Precipitation on dilution/addition of water; assay type: physicochemical
[5] = cited from earlier work
[6] = pH of aqueous slurry of dantrolene sodium; assay type: physicochemical; conditions: 43.5 mg in 43.5 mL of water
Description: 43.5 mgs of dantrolene sodium was slurried in 43.5 mL of water in a conical tube. The pH of the initial of the slurry was 9.89.

SMILES | solubility [1] [µg/mL] | effective pH of 10 mg/mL samples in PEG400 [2] | pH of the supernatant (effective pH) ([2]; PEG400 supernatant) | pH of the supernatant (effective pH) ([2]; propylene glycol supernatant) | dissolution on visual inspection [3] | behaviour of the 10-fold dilution in water ([4]; PEG400 supernatant) | behaviour of the 10-fold dilution in water ([4]; propylene glycol supernatant) | solubility in water [5] | time as stable solution before precipitate formed ([3]; 50 mg/mL in PEG400, room temperature) | time as stable solution before precipitate formed ([3]; 50 mg/mL in propylene glycol, room temperature) | visual inspection of solution ([3]; target 50 mg/mL in PEG400) | visual inspection of solution ([3]; target 50 mg/mL in propylene glycol) | effect of addition of 50 μL of water ([4]; 50 mg/mL in PEG400 (0.124 mL)) | effect of addition of 50 μL of water ([4]; 50 mg/mL in propylene glycol (0.128 mL)) | pH of the initial slurry [6]
O=C1CN(/N=C/c2ccc(-c3ccc([N+](=O)[O-])cc3)o2)C(O)=N1 [dantrolene acid, 1-{[5-(4-nitrophenyl)-2-furyl]methylideneamino}imidazolidine-2,4-dione] | ~800 (≈ 2550 µM) | 4.95 | 4.88 | 5.73 | cloudy after vortexing | precipitated out quickly | precipitated out slowly | very poorly soluble in water | – | – | – | – | – | – | –
O=C1CN(/N=C/c2ccc(-c3ccc([N+](=O)[O-])cc3)o2)C(O)=N1 [dantrolene sodium] | – | 9.67 | – | – | completely dissolved | – | – | – | about 2 days | about 2 days | clear | clear | precipitation | precipitation | 9.89
